Assay results from the NIST ThermoML archive (doi:10.1007/s10765-009-0622-2).
Numbers after ± are expanded uncertainties.

Assays:
[1] = 298.15 K; 101.33 kPa; Liquid
[2] = xn = mol fraction of the nth substance listed; details: 298.15 K, 101 kPa, Liquid

Structure (SMILES): CCCCCC [hexane]
- mass density [1]: 654.7 ± 0.7 kg/m3
- viscosity [1]: 0.2973 ± 0.0062 mPa·s

Structure (SMILES): Cc1ccc(C)cc1 [1,4-dimethylbenzene] + CCCCCC
- mass density ([2]; x2 = 0.0423): 847.8 ± 0.5 kg/m3
- viscosity ([2]; x2 = 0.0423): 0.566 ± 0.01 mPa·s
- mass density ([2]; x2 = 0.1073): 834.45 ± 0.51 kg/m3
- viscosity ([2]; x2 = 0.1073): 0.5235 ± 0.0096 mPa·s
- mass density ([2]; x2 = 0.2137): 812.6 ± 0.52 kg/m3
- viscosity ([2]; x2 = 0.2137): 0.4702 ± 0.0088 mPa·s
- mass density ([2]; x2 = 0.2956): 795.81 ± 0.53 kg/m3
- viscosity ([2]; x2 = 0.2956): 0.4378 ± 0.0083 mPa·s
- mass density ([2]; x2 = 0.3769): 779.21 ± 0.55 kg/m3
- viscosity ([2]; x2 = 0.3769): 0.4119 ± 0.0079 mPa·s
- mass density ([2]; x2 = 0.4201): 770.42 ± 0.56 kg/m3
- viscosity ([2]; x2 = 0.4201): 0.3998 ± 0.0077 mPa·s
- mass density ([2]; x2 = 0.5355): 747.03 ± 0.58 kg/m3
- viscosity ([2]; x2 = 0.5355): 0.3717 ± 0.0073 mPa·s
- mass density ([2]; x2 = 0.562): 741.69 ± 0.58 kg/m3
- viscosity ([2]; x2 = 0.562): 0.3654 ± 0.0072 mPa·s
- mass density ([2]; x2 = 0.6427): 725.47 ± 0.6 kg/m3
- viscosity ([2]; x2 = 0.6427): 0.3502 ± 0.007 mPa·s
- mass density ([2]; x2 = 0.7455): 704.95 ± 0.62 kg/m3
- viscosity ([2]; x2 = 0.7455): 0.3324 ± 0.0067 mPa·s
- mass density ([2]; x2 = 0.7909): 695.94 ± 0.63 kg/m3
- viscosity ([2]; x2 = 0.7909): 0.3256 ± 0.0066 mPa·s
- mass density ([2]; x2 = 0.8792): 678.48 ± 0.66 kg/m3
- viscosity ([2]; x2 = 0.8792): 0.313 ± 0.0064 mPa·s
- mass density ([2]; x2 = 0.9599): 662.62 ± 0.68 kg/m3
- viscosity ([2]; x2 = 0.9599): 0.3024 ± 0.0063 mPa·s

Structure (SMILES): Cc1ccccc1C [1,2-dimethylbenzene] + CCCCCC
- mass density ([2]; x2 = 0.052): 863.09 ± 0.48 kg/m3
- viscosity ([2]; x2 = 0.052): 0.678 ± 0.012 mPa·s
- mass density ([2]; x2 = 0.1413): 842.86 ± 0.49 kg/m3
- viscosity ([2]; x2 = 0.1413): 0.5944 ± 0.011 mPa·s
- mass density ([2]; x2 = 0.2482): 818.74 ± 0.51 kg/m3
- viscosity ([2]; x2 = 0.2482): 0.5239 ± 0.0096 mPa·s
- mass density ([2]; x2 = 0.2901): 809.33 ± 0.52 kg/m3
- viscosity ([2]; x2 = 0.2901): 0.493 ± 0.0091 mPa·s
- mass density ([2]; x2 = 0.355): 794.79 ± 0.53 kg/m3
- viscosity ([2]; x2 = 0.355): 0.462 ± 0.0087 mPa·s
- mass density ([2]; x2 = 0.4004): 784.66 ± 0.54 kg/m3
- viscosity ([2]; x2 = 0.4004): 0.4425 ± 0.0084 mPa·s
- mass density ([2]; x2 = 0.4815): 766.65 ± 0.56 kg/m3
- viscosity ([2]; x2 = 0.4815): 0.4126 ± 0.0079 mPa·s
- mass density ([2]; x2 = 0.51): 760.35 ± 0.56 kg/m3
- viscosity ([2]; x2 = 0.51): 0.4031 ± 0.0078 mPa·s
- mass density ([2]; x2 = 0.5856): 743.71 ± 0.58 kg/m3
- viscosity ([2]; x2 = 0.5856): 0.3816 ± 0.0075 mPa·s
- mass density ([2]; x2 = 0.6351): 732.88 ± 0.59 kg/m3
- viscosity ([2]; x2 = 0.6351): 0.3711 ± 0.0073 mPa·s
- mass density ([2]; x2 = 0.6753): 724.12 ± 0.6 kg/m3
- viscosity ([2]; x2 = 0.6753): 0.3632 ± 0.0072 mPa·s
- mass density ([2]; x2 = 0.7858): 700.23 ± 0.63 kg/m3
- viscosity ([2]; x2 = 0.7858): 0.3344 ± 0.0067 mPa·s
- mass density ([2]; x2 = 0.8317): 690.38 ± 0.64 kg/m3
- viscosity ([2]; x2 = 0.8317): 0.3264 ± 0.0066 mPa·s
- mass density ([2]; x2 = 0.9014): 675.52 ± 0.66 kg/m3
- viscosity ([2]; x2 = 0.9014): 0.314 ± 0.0064 mPa·s

Structure (SMILES): CCc1ccccc1 [ethylbenzene]
- mass density [1]: 862.37 ± 0.49 kg/m3
- viscosity [1]: 0.6369 ± 0.011 mPa·s

Structure (SMILES): CCc1ccccc1 [ethylbenzene] + CCCCCC
- viscosity ([2]; x2 = 0.0437): 0.6071 ± 0.011 mPa·s
- viscosity ([2]; x2 = 0.0884): 0.5751 ± 0.01 mPa·s
- viscosity ([2]; x2 = 0.183): 0.5169 ± 0.0095 mPa·s
- viscosity ([2]; x2 = 0.2262): 0.4791 ± 0.0089 mPa·s
- viscosity ([2]; x2 = 0.2774): 0.4672 ± 0.0088 mPa·s
- viscosity ([2]; x2 = 0.3283): 0.445 ± 0.0084 mPa·s
- viscosity ([2]; x2 = 0.3784): 0.4234 ± 0.0081 mPa·s
- viscosity ([2]; x2 = 0.4359): 0.4047 ± 0.0078 mPa·s
- viscosity ([2]; x2 = 0.488): 0.3902 ± 0.0076 mPa·s
- viscosity ([2]; x2 = 0.5429): 0.3761 ± 0.0074 mPa·s
- viscosity ([2]; x2 = 0.5916): 0.3654 ± 0.0072 mPa·s
- viscosity ([2]; x2 = 0.6534): 0.3527 ± 0.007 mPa·s
- viscosity ([2]; x2 = 0.705): 0.3426 ± 0.0069 mPa·s
- viscosity ([2]; x2 = 0.7644): 0.3326 ± 0.0067 mPa·s
- viscosity ([2]; x2 = 0.809): 0.325 ± 0.0066 mPa·s
- viscosity ([2]; x2 = 0.8882): 0.313 ± 0.0064 mPa·s
- viscosity ([2]; x2 = 0.9478): 0.3046 ± 0.0063 mPa·s

Structure (SMILES): Cc1cccc(C)c1 [1,3-dimethylbenzene] + CCCCCC
- viscosity ([2]; x2 = 0.1329): 0.4984 ± 0.0093 mPa·s
- viscosity ([2]; x2 = 0.1519): 0.4896 ± 0.0091 mPa·s
- viscosity ([2]; x2 = 0.2717): 0.4418 ± 0.0084 mPa·s
- viscosity ([2]; x2 = 0.339): 0.4221 ± 0.0081 mPa·s
- viscosity ([2]; x2 = 0.4303): 0.3978 ± 0.0077 mPa·s
- viscosity ([2]; x2 = 0.448): 0.3935 ± 0.0077 mPa·s
- viscosity ([2]; x2 = 0.5734): 0.3652 ± 0.0072 mPa·s
- viscosity ([2]; x2 = 0.643): 0.3513 ± 0.007 mPa·s
- viscosity ([2]; x2 = 0.6663): 0.3473 ± 0.007 mPa·s
- viscosity ([2]; x2 = 0.719): 0.3389 ± 0.0068 mPa·s
- viscosity ([2]; x2 = 0.8049): 0.3238 ± 0.0066 mPa·s
- viscosity ([2]; x2 = 0.873): 0.3175 ± 0.0065 mPa·s
- viscosity ([2]; x2 = 0.9278): 0.3115 ± 0.0064 mPa·s

Structure (SMILES): Cc1cccc(C)c1 [1,3-dimethylbenzene]
- mass density [1]: 859.78 ± 0.49 kg/m3
- viscosity [1]: 0.583 ± 0.01 mPa·s

Structure (SMILES): Cc1ccc(C)cc1 [1,4-dimethylbenzene]
- mass density [1]: 856.51 ± 0.5 kg/m3
- viscosity [1]: 0.5999 ± 0.011 mPa·s

Structure (SMILES): Cc1ccccc1C [1,2-dimethylbenzene]
- mass density [1]: 874.89 ± 0.48 kg/m3
- viscosity [1]: 0.7506 ± 0.013 mPa·s
